From patent US7259140B2, “Heparin-binding peptides and uses thereof” (Thomas Jefferson University, priority 2003, dated 2007)
Ends that are not written are not given here.

Experiments:
[1] = system: anti-Factor Xa Activity of the Low Molecular Weight Heparin Lovenox ®; assay: Anti-Factor Xa assay (Stachrom Heparin kit): neutralization of Lovenox in citrate or plasma in vitro; type: biochemical, human; conditions: for Lovenox ® Neutralized: Lovenox 0.7 U/ml; for anti-LMWH effect in citrate compared with plasma: Table 2A
Method: The ability of peptides such as (ARKKAAKA)3VLVLVLVL (SEQ ID NO:5) to neutralize the anti-Factor Xa activity of UFH and LMWH in vitro was tested using the Stachrom Heparin kit (Diagnostica Stago), a standard hematology laboratory assay used to measure the anti-Factor Xa activity of heparin. The assay was performed using the low molecular weight heparin enoxaparin sodium (Lovenox®, Aventis Pharmaceuticals, Inc.), unfractionated heparin (UFH), or the non-heparin glycosaminoglycan danaparoid sodium (Orgaran®, Organon Inc., West Orange, N.J.) in 0.32% citrate or in plasma anticoagulated with 0.32% citrate. Enoxaparin is commonly used clinically as a low molecular weight heparin (LMWH). Danaparoid is commonly used clinically as a non-heparin glycosaminoglycan anticoagulant. Currently, the only FDA approved drug to target UFH is protamine, which is not effective in vivo against LMWH or a non-heparin glycosaminoglycan such as danaparoid. Buffer and ATIII are added to form the heparin/ATIII complex, peptide is added, then Factor Xa, reporter dye substrate for Factor Xa activity, and stop solution, and the dye concentration is read at 405 nm. The absorbance of the dye increases with increasing Factor Xa activity, and thus is inversely proportional to the heparin (anti-Factor Xa activity) concentration. Peptides were tested in plasma obtained from three volunteers (A, B, and C). Platelet function inhibitors PG12 and theophylline were added to the blood immediately upon collection.
Results. […] (ARKKAAKA)3VLVLVLVL (SEQ ID NO:5) and VLVL(ARKKAAKA)3ARKKCAKA (SEQ ID NO:38) were able to neutralize about 0.4 U/ml anti-Factor Xa activity of LMWH at a concentration of 12 μg/ml, which would be an effective dose for patients. (AKKARA)6 (SEQ ID […]), (ARKKAAKA)4 (SEQ ID NO:31) and (ARKKAAKA)3ARKKCAKA […] 0.3-0.35 U/ml. In contrast, 12 μg protamine only neutralized about 0.25 U/ml of LMWH under these conditions.

[2] = system: Lovenox ® Activity in Blood from Patients Treated with Lovenox ®; assay: Neutralizing Lovenox activity in blood from patients treated with Lovenox (anti-Factor Xa assay); type: biochemical, human; conditions: Peptide 12 μg/ml
Method: Blood was obtained from volunteers who were being treated with Lovenox® for their medical conditions after obtaining signatures on informed consent forms as approved by the Institutional Review Board. The assays to test neutralization of Lovendx® were performed as described for Table 2. A dose response from 1-60 μg/ml was evaluated as in Table 2.
The dose response pattern for the effective peptides was similar to the dose response in control plasma to which Lovenox® had been added. Each data point represents the mean and standard deviation of triplicate analyses on the same sample of blood from each patient.

[3] = Affinity coelectrophoresis (ACE) of peptide binding to radiolabeled low Mr heparin; design: species or system pig; conditions: for Kd: pH 7.0, mean and standard deviation of four assays, read-out: Kd (nM), affinity for low molecular weight heparin
Source text: Preparation of Radiolabeled Heparin. Whole heparin from pig intestinal mucosa (Sigma) was tyramine end-labeled and radiolabeled with Na^125I (Amersham, Pharmacia Biotech, Inc., Piscataway, N.J.) to an average specific activity≅1.0×10^7 CPM/μg as described (San Antonio, J. D., et al., Biochemistry, 32:4746-4755, 1993). Radiolabeled heparin was fractionated on Sephadex G-100 (Bio-Rad Laboratories, Hercules, Calif.) and the final≅12% of material to elute was retained as the low Mr material of ≦6,000 (Jordan, R., D. Beeler, and R. Rosenberg, J. Biol. Chem., 254:2902-2913, 1979; Laurent, T. C., et al., Biochem. J., 175:691-701, 1978).
Analysis of Peptide-Heparin Interactions by Affinity Coelectrophoresis (ACE). ACE was used to study interactions between peptides and low molecular weight (low Mr) heparin (WO00/45831). In ACE, trace concentrations of radiolabeled heparin are electrophoresed through agarose lanes containing peptides at various concentrations. These analyses are used to determine the dissociation constants (Kd's). The electrophoretic patterns of radiolabeled heparin are then visualized using a phosphorimager, and the dissociation constant (Kd) corresponds to the protein concentration at which the heparin is half shifted from being fully mobile at very low protein concentrations to maximally retarded at saturating protein concentrations. The lower the Kd value, the higher the affinity.
Binding of radiolabeled heparin to peptides was studied by ACE as detailed elsewhere (San Antonio, J. D., et al., Biochemistry, 32:4746-4755, 1993). […] Briefly, peptides were dissolved in 1×ACE running buffer, 50 mM sodium 3-(N-morpholino)-2-hydroxypropanesulfonate (MOPSO, Sigma)/125 mM sodium acetate, pH 7.0, and serially diluted in running buffer at 2× concentrations. Peptides were then mixed 1:1 with 2% agarose/1% CHAPS, 3-[(3-cholamidopropyl)dimethylammonio]-1-propanesulfonate, (Boehringer Mannheim, Indianapolis, Ind.), and loaded into wells of a 1% agarose gel. Radiolabeled heparin was then loaded in a slot on the anode side of the gel, and electrophoresed through the peptide-containing wells, towards the cathode. Gels were dried and PG mobility was measured with a Phosphorimager (Molecular Dynamics, Sunnyvale, Calif.) by scanning each protein lane and determining the relative radioactivity content per 88-μm pixel through the length of the lane. Retardation coefficient (R) measurements, binding isotherm curve fittings, and apparent Kd value determinations were calculated as detailed previously (Lee, M. K., and A. D. Lander, Proc. Natl. Acad. Sci. USA, 88:2768-2772, 1991; San Antonio, J. D., et al, Biochemistry, 32:4746-4755, 1993).
Retardation coefficients (R) for the migration of low Mr 1^25I-tyramine-heparin through peptides were determined from ACE gel electrophoretograms, and are plotted against peptide concentration. Smooth curves represent non-linear least-squares fits to the equation R=R∞/{1+(Kd/[peptide])^n}.

[4] = blood of Lovenox-treated Patient Number 1
[5] = blood of Lovenox-treated Patient Number 2
[6] = blood of Lovenox-treated Patient Number 3
[7] = blood of Lovenox-treated Patient Number 4
[8] = blood of Lovenox-treated Patient Number 5
[9] = blood of Lovenox-treated Patient Number 8
[10] = blood of Lovenox-treated Patient Number 9
[11] = blood of Lovenox-treated Patient Number 10
[12] = blood of Lovenox-treated Patient Number 11

Sequence	Lovenox ® Neutralized ([1]; 1 μg/ml Peptide, A Plasma)	Lovenox ® Neutralized ([1]; 1 μg/ml Peptide, B Plasma)	Lovenox ® Neutralized ([1]; 1 μg/ml Peptide, C Plasma)	Lovenox ® Neutralized ([1]; 1 μg/ml Peptide, Citrate)	Lovenox ® Neutralized ([1]; 6 μg/ml Peptide, A Plasma)	Lovenox ® Neutralized ([1]; 6 μg/ml Peptide, B Plasma)	Lovenox ® Neutralized ([1]; 6 μg/ml Peptide, C Plasma)	Lovenox ® Neutralized ([1]; 6 μg/ml Peptide, Citrate)	Lovenox ® Neutralized ([1]; 12 μg/ml Peptide, A Plasma)	Lovenox ® Neutralized ([1]; 12 μg/ml Peptide, B Plasma)	Lovenox ® Neutralized ([1]; 12 μg/ml Peptide, C Plasma)	Lovenox ® Neutralized ([1]; 12 μg/ml Peptide, Citrate)	Lovenox ® Neutralized ([1]; 60 μg/ml Peptide, A Plasma)	Lovenox ® Neutralized ([1]; 60 μg/ml Peptide, B Plasma)	Lovenox ® Neutralized ([1]; 60 μg/ml Peptide, C Plasma)	Lovenox ® Neutralized ([1]; 60 μg/ml Peptide, Citrate)	Lovenox ® Neutralized ([1]; 120 μg/ml Peptide, A Plasma)	Lovenox ® Neutralized ([1]; 120 μg/ml Peptide, B Plasma)	Lovenox ® Neutralized ([1]; 120 μg/ml Peptide, C Plasma)	Lovenox ® Neutralized ([1]; 120 μg/ml Peptide, Citrate)	also measured
ARKKAAKAAAAAAAAAAAAAAAAAARKKAAKA [ARKKAAKA(A16)ARKKAAKA, reference compound]	0.010 ± 0.008 U/ml	0.027 ± 0.014 U/ml	0.0 U/ml	0.020 ± 0.023 U/ml	0.018 ± 0.018 U/ml	0.042 ± 0.041 U/ml	0.0 U/ml	0.013 ± 0.007 U/ml	0.025 ± 0.011 U/ml	0.042 ± 0.023 U/ml	0.008 ± 0.012 U/ml	0.010 ± 0.007 U/ml	0.018 ± 0.020 U/ml	0.061 ± 0.067 U/ml	0.015 ± 0.012 U/ml	0.017 ± 0.014 U/ml	0.043 ± 0.020 U/ml	0.092 ± 0.042 U/ml	0.003 ± 0.002 U/ml	0.069 ± 0.035 U/ml	effect in the anti-Factor Xa assay for Lovenox ([1]; in both citrate and plasma): minimal effects; Lovenox ® Neutralized [2, 4]: 0 U/ml; Lovenox ® Neutralized [2, 5]: 0.011 U/ml; Lovenox ® Neutralized [2, 6]: 0.055 U/ml; Lovenox ® Neutralized [2, 7]: 0.035 U/ml; Lovenox ® Neutralized [2, 8]: 0.005 U/ml; Lovenox ® Neutralized [2, 9]: 0 U/ml; Lovenox ® Neutralized [2, 10]: 0.009 U/ml; Lovenox ® Neutralized [2, 11]: 0.062 U/ml; Lovenox ® Neutralized [2, 12]: 0.007 + U/ml; Kd [3]: 8327 ± 60 nM
ARKKAAKAARKKAAKAARKKAAKAARKKAAKA [(ARKKAAKA)4]	0.020 ± 0.016 U/ml	0.031 ± 0.015 U/ml	0.059 ± 0.029 U/ml	0.141 ± 0.051 U/ml	0.184 ± 0.038 U/ml	0.178 ± 0.022 U/ml	0.252 ± 0.024 U/ml	0.376 ± 0.019 U/ml	0.287 ± 0.058 U/ml	0.328 ± 0.041 U/ml	0.325 ± 0.030 U/ml	0.473 ± 0.039 U/ml	0.343 ± 0.090 U/ml	0.488 ± 0.012 U/ml	0.495 ± 0.032 U/ml	0.515 ± 0.016 U/ml	0.601 ± 0.052 U/ml	0.541 ± 0.065 U/ml	0.570 ± 0.029 U/ml	0.509 ± 0.079 U/ml	anti-LMWH effect in citrate compared with plasma [1]: greater anti-LMWH effect in citrate than in plasma; Lovenox/LMWH neutralization compared with protamine ([1]; low concentrations, in the presence of plasma): more effective than protamine; Lovenox ® Neutralized [2, 4]: 0.116 U/ml; Lovenox ® Neutralized [2, 5]: 0.073 U/ml; Lovenox ® Neutralized [2, 6]: 0.105 U/ml; Lovenox ® Neutralized [2, 7]: 0.225 U/ml; Lovenox ® Neutralized [2, 8]: 0.194 U/ml; Lovenox ® Neutralized [2, 9]: 0.289 U/ml; Lovenox ® Neutralized [2, 10]: 0.283 U/ml; Lovenox ® Neutralized [2, 11]: 0.194 U/ml; Lovenox ® Neutralized [2, 12]: 0.135 U/ml; affinity for low molecular weight heparin [3]: high heparin affinity; Kd [3]: 55 ± 32 nM
ARKKAAKAARKKAAKAARKKAAKAVLVLVL [(ARKKAAKA)3VLVLVL]	0.070 ± .036 U/ml	0.030 ± 0.020 U/ml	0.005 + 0.007 U/ml	0.064 ± .046 U/ml	0.250 ± .012 U/ml	0.234 ± 0.032 U/ml	0.153 ± 0.031 U/ml	0.298 ± .049 U/ml	0.241 ± .076 U/ml	0.247 ± 0.031 U/ml	0.276 ± 0.033 U/ml	0.457 ± .016 U/ml	0.453 ± .029 U/ml	0.474 ± 0.011 U/ml	0.491 ± 0.029 U/ml	0.479 ± .006 U/ml	0.457 ± .010 U/ml	0.496 ± 0.028 U/ml	0.471 ± 0.013 U/ml	0.516 ± .065 U/ml	anti-LMWH effect in citrate compared with plasma [1]: greater anti-LMWH effect in citrate than in plasma; Lovenox ® Neutralized [2, 4]: 0.016 U/ml; Lovenox ® Neutralized [2, 5]: 0.030 U/ml; Lovenox ® Neutralized [2, 6]: 0.043 U/ml; Lovenox ® Neutralized [2, 7]: 0.122 U/ml; Lovenox ® Neutralized [2, 8]: 0.109 U/ml; Lovenox ® Neutralized [2, 9]: 0.104 U/ml; Lovenox ® Neutralized [2, 10]: 0.187 U/ml; Lovenox ® Neutralized [2, 11]: 0.133 U/ml; Lovenox ® Neutralized [2, 12]: 0.142 U/ml; Kd [3]: 44 ± 17 nM
